{
  "source": "patent US12213957B2",
  "about": "“Use of aminoacetonitrile compounds for the treatment of infection and disease” (PITNEY PHARMACEUTICALS PTY LIMITED, priority 2020, dated 2025)",
  "key": {"[1]": {"assay": "Blood plasma levels in pet dogs of the veterinary trial", "assay_type": "in vivo, dog", "conditions": "pet dogs, monepantel 179 mg/kg bw daily; one value per dog", "protocol": "In a Phase 2 veterinary clinical trial, monepantel was administered as tablets daily to six pet dog patients (dog identification numbers: 001-001, 001-002, 001-003, 003-001, 004-002 and 004-003) with treatment naïve B cell lymphoma at a target dose of 179 mg/kg bw. Superficial tumour lesions were measured with calipers, while lesions within the body were assessed by X-Ray, ultrasound, computer tomography (CT) and/or physical palpitation. Baseline Day 0 (D0) predose caliper, X-Ray, ultrasound and CT measurements where available as well as a complete physical examination were recorded.\nAn inverse correlation between RECIST1.1 response and blood plasma levels of monepantel and monepantel sulfone was evident. The one dog (003-001) that achieved a partial response, recorded monepantel and […] of 0.1 and 6.7 μM, respectively."}, "[2]": {"assay": "Blood plasma levels in human patients", "assay_type": "in vivo", "conditions": "monepantel as Zolvix 5 mg/kg bw daily", "protocol": "In a Phase 1 b clinical trial, monepantel administered as Zolvix daily to four human patients (PA02, PA04, PA06 and PA07) at 5 mg/kg bw provided an anticancer effect by computerised tomography (CT) scanning according to RECIST1.1 criteria. […] Evidence of mTOR pathway signalling inhibition in these patients was supported by the finding of decreased eurkaryotic translation initiation factor 4E-binding protein 1 (EIF-4EBP1) phosphorylation levels from the preparations of PBMCs from PA02, PA04 and PA06 (FIG. 1B). EIF-4EIBP1 phosphorylation levels were not assayed from preparations of PBMCs from PA07.\nBlood plasma monepantel and monepantel sulfone levels of all four patients were recorded at intervals throughout treatment (Table 2)."}, "SARS-CoV-2 [3]": {"tested_on": "SARS-CoV-2", "assay_type": "cell-based", "conditions": "40 μM and 8 μM compared to 0.064 μM, p<0.001"}, "SARS-CoV-2 [4]": {"tested_on": "SARS-CoV-2", "assay_type": "cell-based"}, "SARS-CoV-2 [5]": {"tested_on": "SARS-CoV-2", "assay_type": "cell-based", "conditions": "Calu-3 human cells, concentrations from 3.00 μM down to 0.013 μM"}, "[6]": {"tested_on": "VERO cells infected with SARS-CoV-2", "assay_type": "cell-based", "conditions": "approximately 10 μM MPLS"}, "CHO cells": {"tested_on": "CHO cells", "conditions": "no virus, read-out: CHO and cell 1050 values for MPLS treatment alone; cited from earlier work"}},
  "note": "Several values for one entry are separate records, joined by “and”; a condition that tells them apart may be missing. Equal values may be shown once. Read-outs that look alike come from different tables or passages of the source.",
  "data": [
    {"smiles": "C[C@](C#N)(COc1cc(C#N)ccc1C(F)(F)F)NC(=O)c1ccc(S(=O)(=O)C(F)(F)F)cc1", "note": "[MPLS, monepantel sulfone]", "values": [
      {"measurement": "Blood plasma Monepantel sulfone Day 24", "setting": "[1]", "result": 26.1, "unit": "µM"},
      {"measurement": "Blood plasma level of monepantel sulfone, Average", "setting": "[2]; 0.25 h, average of patients", "result": "0.00 ∞M"},
      {"measurement": "Blood plasma level of monepantel sulfone", "setting": "[2]; 0.25 h, individual patients", "result": "0 ng/ml (3×) and 5.4 ng/ml"},
      {"measurement": "Blood plasma level of monepantel sulfone, Average", "setting": "[2]; 0.5 h, average of patients", "result": "0.05 ∞M"},
      {"measurement": "Blood plasma level of monepantel sulfone", "setting": "[2]; 0.5 h, individual patients", "result": "8.63 ng/mL and 37.5 ng/mL and 32.1 ng/mL and 13.1 ng/mL"},
      {"measurement": "Blood plasma level of monepantel sulfone, Average", "setting": "[2]; 1 h, average of patients", "result": "0.29 ∞M"},
      {"measurement": "Blood plasma level of monepantel sulfone", "setting": "[2]; 1 h, individual patients", "result": "65.5 ng/mL and 152 ng/mL and 252 ng/mL and 125 ng/mL"},
      {"measurement": "Blood plasma level of monepantel sulfone, Average", "setting": "[2]; 2 h, average of patients", "result": "0.86 ∞M"},
      {"measurement": "Blood plasma level of monepantel sulfone", "setting": "[2]; 2 h, individual patients", "result": "266 ng/mL and 482 ng/mL and 639 ng/mL and 360 ng/mL"},
      {"measurement": "Blood plasma level of monepantel sulfone, Average", "setting": "[2]; 4 h, average of patients", "result": "1.77 ∞M"},
      {"measurement": "Blood plasma level of monepantel sulfone", "setting": "[2]; 4 h, individual patients", "result": "1050 ng/mL and 663 ng/mL and 1140 ng/mL"},
      {"measurement": "Blood plasma level of monepantel sulfone, Average", "setting": "[2]; 8 h, average of patients", "result": "1.13 ∞M"},
      {"measurement": "Blood plasma level of monepantel sulfone", "setting": "[2]; 8 h, individual patients", "result": "637 ng/mL and 398 ng/mL and 689 ng/mL"},
      {"measurement": "Blood plasma level of monepantel sulfone, Average", "setting": "[2]; 12 h, average of patients", "result": "0.68 ∞M"},
      {"measurement": "Blood plasma level of monepantel sulfone", "setting": "[2]; 12 h, individual patients", "result": "276 ng/mL and 348 ng/mL and 351 ng/mL"},
      {"measurement": "Blood plasma level of monepantel sulfone, Average", "setting": "[2]; 24 h, average of patients", "result": "0.45 ∞M"},
      {"measurement": "Blood plasma level of monepantel sulfone", "setting": "[2]; 24 h, individual patients", "result": "179 ng/mL and 258 ng/mL and 214 ng/mL"},
      {"measurement": "Blood plasma level of monepantel sulfone, Average", "setting": "[2]; pre-dose D3, average of patients", "result": "267.8 ng/ml and 0.53 ∞M"},
      {"measurement": "Blood plasma level of monepantel sulfone", "setting": "[2]; pre-dose D3, individual patients", "result": "269 ng/mL and 240 ng/mL and 285 ng/mL and 277 ng/mL"},
      {"measurement": "Blood plasma level of monepantel sulfone, Average", "setting": "[2]; pre-dose D4, average of patients", "result": "272.3 ng/ml and 0.54 ∞M"},
      {"measurement": "Blood plasma level of monepantel sulfone", "setting": "[2]; pre-dose D4, individual patients", "result": "291 ng/ml (2×) and 231 ng/ml and 276 ng/ml"},
      {"measurement": "Blood plasma level of monepantel sulfone, Average", "setting": "[2]; pre-dose D5, average of patients", "result": "238.3 ng/ml and 0.47 ∞M"},
      {"measurement": "Blood plasma level of monepantel sulfone", "setting": "[2]; pre-dose D5, individual patients", "result": "233 ng/mL and 229 ng/mL and 250 ng/mL and 241 ng/mL"},
      {"measurement": "Blood plasma level of monepantel sulfone, Average", "setting": "[2]; pre-dose D6, average of patients", "result": "214.3 ng/ml and 0.42 ∞M"},
      {"measurement": "Blood plasma level of monepantel sulfone", "setting": "[2]; pre-dose D6, individual patients", "result": "232 ng/mL and 205 ng/mL and 216 ng/mL and 204 ng/mL"},
      {"measurement": "Blood plasma level of monepantel sulfone, Average", "setting": "[2]; pre-dose D7, average of patients", "result": "205.0 ng/ml and 10.41 ∞M"},
      {"measurement": "Blood plasma level of monepantel sulfone", "setting": "[2]; pre-dose D7, individual patients", "result": "215 ng/mL and 188 ng/mL and 235 ng/mL and 182 ng/mL"},
      {"measurement": "Blood plasma level of monepantel sulfone, Average", "setting": "[2]; pre-dose D14, average of patients", "result": "148.0 ng/ml and 0.29 ∞M"},
      {"measurement": "Blood plasma level of monepantel sulfone", "setting": "[2]; pre-dose D14, individual patients", "result": "158 ng/mL and 131 ng/mL and 154 ng/mL and 149 ng/mL"},
      {"measurement": "Blood plasma level of monepantel sulfone, Average", "setting": "[2]; pre-dose D21, average of patients", "result": "147.0 ng/ml and 0.29 ∞M"},
      {"measurement": "Blood plasma level of monepantel sulfone", "setting": "[2]; pre-dose D21, individual patients", "result": "157 ng/mL and 146 ng/mL and 138 ng/mL"},
      {"measurement": "Blood plasma level of monepantel sulfone, Average", "setting": "[2]; pre-dose D28, average of patients", "result": "154.3 ng/ml and 0.31 ∞M"},
      {"measurement": "Blood plasma level of monepantel sulfone", "setting": "[2]; pre-dose D28, individual patients", "result": "180 ng/mL and 162 ng/mL and 121 ng/mL"},
      {"measurement": "concentration at 0.25 h", "setting": "[2]; plasma, oral, 5 mg/kg bw, 0.25 h, average of patients, read-out: Blood plasma level of monepantel sulfone, Average", "result": 1.4, "unit": "ng/mL"},
      {"measurement": "concentration at 0.5 h", "setting": "[2]; plasma, oral, 5 mg/kg bw, 0.5 h, average of patients, read-out: Blood plasma level of monepantel sulfone, Average", "result": 22.8, "unit": "ng/mL"},
      {"measurement": "concentration at 1 h", "setting": "[2]; plasma, oral, 5 mg/kg bw, 1 h, average of patients, read-out: Blood plasma level of monepantel sulfone, Average", "result": 149, "unit": "ng/mL"},
      {"measurement": "concentration at 2 h", "setting": "[2]; plasma, oral, 5 mg/kg bw, 2 h, average of patients, read-out: Blood plasma level of monepantel sulfone, Average", "result": 437, "unit": "ng/mL"},
      {"measurement": "concentration at 4 h", "setting": "[2]; plasma, oral, 5 mg/kg bw, 4 h, average of patients, read-out: Blood plasma level of monepantel sulfone, Average", "result": 896, "unit": "ng/mL"},
      {"measurement": "concentration at 4 h", "setting": "[2]; plasma, oral, 5 mg/kg bw, 4 h, individual patients, read-out: Blood plasma level of monepantel sulfone", "result": 732, "unit": "ng/mL"},
      {"measurement": "concentration at 8 h", "setting": "[2]; plasma, oral, 5 mg/kg bw, 8 h, average of patients, read-out: Blood plasma level of monepantel sulfone, Average", "result": 572, "unit": "ng/mL"},
      {"measurement": "concentration at 8 h", "setting": "[2]; plasma, oral, 5 mg/kg bw, 8 h, individual patients, read-out: Blood plasma level of monepantel sulfone", "result": 565, "unit": "ng/mL"},
      {"measurement": "concentration at 12 h", "setting": "[2]; plasma, oral, 5 mg/kg bw, 12 h, average of patients, read-out: Blood plasma level of monepantel sulfone, Average", "result": 346, "unit": "ng/mL"},
      {"measurement": "concentration at 12 h", "setting": "[2]; plasma, oral, 5 mg/kg bw, 12 h, individual patients, read-out: Blood plasma level of monepantel sulfone", "result": 409, "unit": "ng/mL"},
      {"measurement": "concentration at 24 h", "setting": "[2]; plasma, oral, 5 mg/kg bw, 24 h, average of patients, read-out: Blood plasma level of monepantel sulfone, Average", "result": 226, "unit": "ng/mL"},
      {"measurement": "concentration at 24 h", "setting": "[2]; plasma, oral, 5 mg/kg bw, 24 h, individual patients, read-out: Blood plasma level of monepantel sulfone", "result": 254, "unit": "ng/mL"},
      {"measurement": "SARS-CoV-2 RNA concentration in the media (qPCR)", "setting": "SARS-CoV-2 [3]", "result": "significantly decreased"},
      {"measurement": "SARS-CoV-2 infectivity (TCID50, repeat experiment) compared to no treatment", "setting": "SARS-CoV-2 [4]; MPLS 11.11 μM (highest concentration), VERO cells", "result": "significantly reduces SARS-CoV-2 infectivity"},
      {"measurement": "pathogenicity of VERO cell culture media following infection (TCID50)", "setting": "SARS-CoV-2 [4]; MPLS 8 and 40 μM, strong trend", "result": "reduce the pathogenicity"},
      {"measurement": "SARS-CoV-2 infectivity (TCID50)", "setting": "SARS-CoV-2 [5]", "result": "reduced SARS-CoV-2 infectivity"},
      {"measurement": "protection against cell death following infection with SARS-CoV-2", "setting": "[6]", "result": "almost completely protected VERO cell against cell death"},
      {"measurement": "toxic effect upon VERO cells infected with SARS-CoV-2 (LDH)", "setting": "VERO cells", "result": "minimal toxic effect"},
      {"measurement": "toxicity caused by SARS-CoV-2", "setting": "VERO cells", "result": "appeared to increase toxicity"},
      {"measurement": "toxicity of VERO cells to SARS-CoV-2 infection", "setting": "VERO cells", "result": "may slightly increase toxicity"},
      {"measurement": "toxicity to VERO cells", "setting": "VERO cells", "result": "no signs of toxicity"},
      {"measurement": "toxicity to uninfected VERO cells", "setting": "VERO cells", "result": "some toxicity"},
      {"measurement": "SARS-CoV-2 toxicity", "setting": "VERO cells; African green monkey", "result": "does not apparently increase SARS-CoV-2 toxicity"},
      {"measurement": "IC50", "setting": "CHO cells", "result": 74, "unit": "µM"}
    ]}
  ]
}
